From the NIST ThermoML archive (doi:10.1021/je4009415)
± gives the expanded uncertainty stated by the source.

What was measured:
[1] = Liquid; for mass density: Vibrating tube method; for vapor or sublimation pressure: Ebulliometric method (Recirculating still)
[2] = refractive index (Na D-line) (dimensionless); conditions: 298.15 K; 101.33 kPa; Liquid; Standard Abbe refractometry
[3] = xn = mol fraction of the nth substance listed; conditions: Liquid, Vibrating tube method

CCC(=O)OC [methyl propanoate]
[1]
Conditions	mass density [kg/m3]	vapor or sublimation pressure [kPa]
288.15 K	921.21 ± 0.89	–
298.15 K	909.1 ± 0.88	–
308.15 K	896.91 ± 0.86	–
318.15 K	884.71 ± 0.84	–
328.15 K	872.22 ± 0.83	–
335.15 K	–	55 ± 0.13
336.38 K	–	57.5 ± 0.14
337.53 K	–	60 ± 0.15
338.61 K	–	62.5 ± 0.15
339.76 K	–	65 ± 0.16
340.79 K	–	67.5 ± 0.16
341.81 K	–	70 ± 0.17
342.79 K	–	72.5 ± 0.17
343.75 K	–	75 ± 0.18
344.68 K	–	77.5 ± 0.18
345.59 K	–	80 ± 0.19
346.49 K	–	82.5 ± 0.19
347.35 K	–	85 ± 0.2
348.2 K	–	87.5 ± 0.21
349.03 K	–	90 ± 0.21
349.83 K	–	92.5 ± 0.22
350.62 K	–	95 ± 0.22
352.34 K	–	100 ± 0.23
352.72 K	–	101.32 ± 0.24
352.75 K	–	101.32 ± 0.61
353.81 K	–	105 ± 0.24
355.23 K	–	110 ± 0.26
356.53 K	–	115 ± 0.27
357.87 K	–	120 ± 0.28
359.16 K	–	125 ± 0.29
360.42 K	–	130 ± 0.3
361.65 K	–	135 ± 0.31
362.8 K	–	140 ± 0.32
363.97 K	–	145 ± 0.33
365.05 K	–	150 ± 0.35
366.15 K	–	155 ± 0.36
367.22 K	–	160 ± 0.37
368.27 K	–	165 ± 0.38
369.26 K	–	170 ± 0.39
370.25 K	–	175 ± 0.4
371.22 K	–	180 ± 0.41
372.2 K	–	185 ± 0.42
373.12 K	–	190 ± 0.43
374.01 K	–	195 ± 0.45
374.9 K	–	200 ± 0.46
375.77 K	–	205 ± 0.47
376.63 K	–	210 ± 0.48
377.52 K	–	215 ± 0.49
378.3 K	–	220 ± 0.5
379.14 K	–	225 ± 0.51
379.96 K	–	230 ± 0.52
380.72 K	–	235 ± 0.53
381.51 K	–	240 ± 0.55
382.25 K	–	245 ± 0.56
383.03 K	–	250 ± 0.57
383.74 K	–	255 ± 0.58
384.47 K	–	260 ± 0.59
385.21 K	–	265 ± 0.6
385.87 K	–	270 ± 0.61
386.61 K	–	275 ± 0.62
387.28 K	–	280 ± 0.64

Conditions	refractive index
[2]	1.3743 ± 0.0007

CCC(=O)OC [methyl propanoate] + CCCCC
mass density [kg/m3], [3], 101 kPa
Conditions	288.15 K	298.15 K
x1 = 0.0597	644.23 ± 0.28	–
x1 = 0.0641	–	635.16 ± 0.28
x1 = 0.0925	651.9 ± 0.29	–
x1 = 0.0938	–	642.1 ± 0.29
x1 = 0.1482	–	654.98 ± 0.3
x1 = 0.1507	665.97 ± 0.3	–
x1 = 0.204	679.21 ± 0.32	–
x1 = 0.2099	–	670.19 ± 0.32
x1 = 0.2574	–	682.36 ± 0.33
x1 = 0.2614	693.95 ± 0.34	–
x1 = 0.3127	707.38 ± 0.35	–
x1 = 0.3135	–	696.99 ± 0.35
x1 = 0.3382	714.27 ± 0.36	–
x1 = 0.3389	–	703.72 ± 0.36
x1 = 0.3927	729.16 ± 0.39	–
x1 = 0.3942	–	718.75 ± 0.38
x1 = 0.442	743.09 ± 0.41	–
x1 = 0.4459	–	733.12 ± 0.41
x1 = 0.4985	759.2 ± 0.44	–
x1 = 0.4999	–	748.56 ± 0.43
x1 = 0.5461	773.25 ± 0.47	–
x1 = 0.5478	–	762.56 ± 0.46
x1 = 0.5921	–	775.9 ± 0.49
x1 = 0.5926	787.12 ± 0.5	–
x1 = 0.6407	801.96 ± 0.53	–
x1 = 0.6434	–	791.33 ± 0.52
x1 = 0.6898	–	805.83 ± 0.56
x1 = 0.69	817.19 ± 0.57	–
x1 = 0.7559	–	826.88 ± 0.61
x1 = 0.7581	839.01 ± 0.63	–
x1 = 0.8051	–	842.74 ± 0.66
x1 = 0.8072	855.11 ± 0.67	–
x1 = 0.8487	868.74 ± 0.72	–
x1 = 0.8499	–	857.54 ± 0.71
x1 = 0.8891	882.39 ± 0.76	–
x1 = 0.8915	–	871.51 ± 0.75
x1 = 0.9538	904.73 ± 0.84	–
x1 = 0.9601	–	894.98 ± 0.84
x1 = 1	921.21 ± 0.89	909.1 ± 0.88

CCCCCCCCC [nonane]
[1]
Conditions	mass density [kg/m3]	vapor or sublimation pressure [kPa]
288.15 K	721.65 ± 0.24	–
298.15 K	713.85 ± 0.24	–
308.15 K	705.96 ± 0.25	–
318.15 K	698.06 ± 0.25	–
328.15 K	690.17 ± 0.25	–
423.9 K	–	101.32 ± 0.51

Conditions	refractive index
[2]	1.4032 ± 0.0005

CCCCCCCCC [nonane] + CCC(=O)OC
[3], x2 = 0
Conditions	mass density [kg/m3]
288.15 K	721.65 ± 0.24
298.15 K	713.85 ± 0.24
308.15 K	705.96 ± 0.25
318.15 K	698.06 ± 0.25
328.15 K	690.17 ± 0.25

CCCCCCCCC [nonane] + CCOC(=O)CC
[3], x2 = 0
Conditions	mass density [kg/m3]
288.15 K	721.65 ± 0.24
298.15 K	713.85 ± 0.24
308.15 K	705.96 ± 0.25
318.15 K	698.06 ± 0.25
328.15 K	690.17 ± 0.25

CCCCC [pentane]
[1]
Conditions	mass density [kg/m3]	vapor or sublimation pressure [kPa]
288.15 K	630.78 ± 0.26	–
298.15 K	620.9 ± 0.26	–
298.91 K	–	70 ± 0.1
299.82 K	–	72.5 ± 0.1
300.77 K	–	75 ± 0.1
301.65 K	–	77.5 ± 0.11
302.52 K	–	80 ± 0.11
303.38 K	–	82.5 ± 0.11
304.22 K	–	85 ± 0.11
305.02 K	–	87.5 ± 0.12
305.81 K	–	90 ± 0.12
306.62 K	–	92.5 ± 0.12
307.37 K	–	95 ± 0.12
308.12 K	–	97.5 ± 0.13
308.87 K	–	100 ± 0.13
309.23 K	–	101.32 ± 0.13
310.28 K	–	105 ± 0.13
311.64 K	–	110 ± 0.14
312.97 K	–	115 ± 0.14
314.26 K	–	120 ± 0.15
315.5 K	–	125 ± 0.16
316.7 K	–	130 ± 0.16
317.87 K	–	135 ± 0.17
319.01 K	–	140 ± 0.17
320.11 K	–	145 ± 0.18
321.17 K	–	150 ± 0.18
322.24 K	–	155 ± 0.19
323.25 K	–	160 ± 0.19
324.26 K	–	165 ± 0.2
325.24 K	–	170 ± 0.2
326.18 K	–	175 ± 0.21
327.12 K	–	180 ± 0.21
328.03 K	–	185 ± 0.22
328.93 K	–	190 ± 0.23
329.8 K	–	195 ± 0.23
330.66 K	–	200 ± 0.24
331.51 K	–	205 ± 0.24
332.34 K	–	210 ± 0.25
333.15 K	–	215 ± 0.25
333.95 K	–	220 ± 0.26
334.73 K	–	225 ± 0.26
335.5 K	–	230 ± 0.27
336.28 K	–	235 ± 0.27
337.02 K	–	240 ± 0.28
337.75 K	–	245 ± 0.29
338.47 K	–	250 ± 0.29
339.19 K	–	255 ± 0.3
339.89 K	–	260 ± 0.3
340.59 K	–	265 ± 0.31
341.27 K	–	270 ± 0.31
341.94 K	–	275 ± 0.32
342.6 K	–	280 ± 0.32

Conditions	mass density [kg/m3]
[1], 298.15 K, 101 kPa	620.91 ± 0.26

Conditions	refractive index
[2]	1.3547 ± 0.0005

CCCCC [pentane] + CCC(=O)OC
[3], 101 kPa, x2 = 0
Conditions	mass density [kg/m3]
288.15 K	630.78 ± 0.26
298.15 K	620.91 ± 0.26

CCCCC [pentane] + CCOC(=O)CC
[3], x2 = 0
Conditions	mass density [kg/m3]
288.15 K	630.78 ± 0.26
298.15 K	620.9 ± 0.26
